Values of other authors, collected in patent US8679534B2, “HMG-CoA reductase inhibitor extended release formulation” (Andrx Labs, LLC, priority 1997, dated 2014).

Tested on: blood serum cholesterol level
Conditions: background statement

Compound: CC[C@H](C)C(=O)O[C@H]1C[C@@H](C)C=C2C=C[C@H](C)[C@H](CC[C@@H]3C[C@@H](O)CC(=O)O3)[C@H]21 [Lovastatin, lovastatin]
- lowering of the blood serum cholesterol level: 30-40%
